From publication PMC9983021, “Novel GluN2B-Selective NMDA Receptor Negative Allosteric Modulator Possesses Intrinsic Analgesic Properties and Enhances Analgesia of Morphine in a Rodent Tail Flick Pain Model” (ACS Chemical Neuroscience, 2023) come the findings set out here.

What is called inhibition is the relative decrease from the control value, in per cent.

The target of experiment [1] is diheteromeric rat GluN1/GluN2Ac1/GluN2Ac2 (r2Ac1/r2Ac2) (Rattus norvegicus, UniProt P35439+Q00959). The experiment is described as follows: Concentration-inhibition curves, oocytes, C1/C2-tagged NMDARs.
diheteromeric rat GluN1/GluN2Ac1/GluN2Ac2 (r2Ac1/r2Ac2), sequence (Q00959 23-1464, other chains not shown): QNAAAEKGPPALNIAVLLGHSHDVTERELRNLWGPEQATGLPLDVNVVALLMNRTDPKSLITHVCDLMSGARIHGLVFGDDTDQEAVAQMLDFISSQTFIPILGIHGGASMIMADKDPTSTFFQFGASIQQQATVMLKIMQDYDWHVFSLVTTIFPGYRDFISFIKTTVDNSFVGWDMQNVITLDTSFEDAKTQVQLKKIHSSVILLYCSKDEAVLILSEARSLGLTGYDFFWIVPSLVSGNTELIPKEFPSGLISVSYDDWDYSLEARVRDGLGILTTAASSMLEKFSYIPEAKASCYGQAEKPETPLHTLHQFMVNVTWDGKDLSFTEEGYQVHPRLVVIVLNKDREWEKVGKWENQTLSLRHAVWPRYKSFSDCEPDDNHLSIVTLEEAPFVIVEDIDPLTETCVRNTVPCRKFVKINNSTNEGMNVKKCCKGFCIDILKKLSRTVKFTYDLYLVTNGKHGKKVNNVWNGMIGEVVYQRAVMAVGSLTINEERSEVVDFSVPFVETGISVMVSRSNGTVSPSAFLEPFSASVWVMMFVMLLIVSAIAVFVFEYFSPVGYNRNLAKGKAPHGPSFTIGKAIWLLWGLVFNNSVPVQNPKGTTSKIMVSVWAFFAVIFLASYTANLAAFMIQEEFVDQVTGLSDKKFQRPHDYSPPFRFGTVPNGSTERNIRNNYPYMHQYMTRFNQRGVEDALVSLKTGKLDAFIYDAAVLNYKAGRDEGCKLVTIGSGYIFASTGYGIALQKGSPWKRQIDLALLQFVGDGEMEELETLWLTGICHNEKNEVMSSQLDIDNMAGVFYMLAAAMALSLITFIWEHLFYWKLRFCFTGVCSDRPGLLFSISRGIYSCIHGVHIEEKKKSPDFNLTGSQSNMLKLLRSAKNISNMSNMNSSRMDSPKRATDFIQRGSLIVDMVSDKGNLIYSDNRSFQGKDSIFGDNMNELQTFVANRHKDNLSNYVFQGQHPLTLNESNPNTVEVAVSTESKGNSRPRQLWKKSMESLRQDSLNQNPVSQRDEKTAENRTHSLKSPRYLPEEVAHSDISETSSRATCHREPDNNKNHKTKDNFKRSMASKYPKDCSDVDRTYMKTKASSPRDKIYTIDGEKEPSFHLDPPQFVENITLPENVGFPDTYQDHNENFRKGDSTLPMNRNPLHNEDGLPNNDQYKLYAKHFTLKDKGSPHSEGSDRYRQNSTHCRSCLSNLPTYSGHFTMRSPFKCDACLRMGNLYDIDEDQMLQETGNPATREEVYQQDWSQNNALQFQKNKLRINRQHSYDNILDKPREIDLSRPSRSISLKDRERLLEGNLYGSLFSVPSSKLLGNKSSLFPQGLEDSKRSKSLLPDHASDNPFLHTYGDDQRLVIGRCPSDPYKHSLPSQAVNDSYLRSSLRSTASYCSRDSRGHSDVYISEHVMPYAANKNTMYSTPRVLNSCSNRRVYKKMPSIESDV
diheteromeric rat GluN1/GluN2Ac1/GluN2Ac2 (r2Ac1/r2Ac2), sequence (Q00959 23-1464, other chains not shown): as above
Another experiment deals with hP2x. The experiment is described as follows: Off-target ligand-gated ion channels in Xenopus oocytes. The experiment is classed as cell-based, human. The following applies: agonist 9 µM ATP; mean ± SEM. As for the experimental part: EU93-108 was further examined for its behavior against common off-target receptors. First, selectivity for GluN2B over other ion channels in the brain was examined via two-electrode voltage clamp recordings of Xenopus oocytes expressing AMPA, kainate, nicotinic acetylcholine, serotonin, GABA, glycine, and ATP receptors. Current responses were tested with saturating concentrations of agonist in both the absence and presence of 10 μM EU93-108, and confirmed selectivity for GluN2B-containing NMDA receptors over AMPA, kainate, GABA, glycine, ATP, and 5-HT3A receptors (Supporting Table S3).
Receptor Agonist % Control
Supplemental Table S3. Off-target actions of EU93-108 at ligand-gated ion channels expressed in Xenopus oocytes. The mean ± standard error of the mean for agonist plus 10 μM EU93-108 as a percentage of agonist in vehicle are given for each compound and receptor tested. Number of oocytes tested is given in parentheses.

The next experiment addresses T1, D1 (Homo sapiens, UniProt P21728).
T1 construct: purchased NIMH Psychoactive Drug Screening Program (PDSP)
The experiment is described as follows: Radioligand binding assay (NIMH PDSP). The following applies: primary screen, quadruplicate. As to the method:
(§1) Conventional competition and saturation radioligand binding assays were used to determine the affinities of reference standards and EU93-108. Experiments were carried out by the NIMH Psychoactive Drug Screening Program (PDSP) and were performed as previously described.[123]
(§2) The detailed experimental protocols for the radioligand assays are available on the NIMH PDSP website at https://pdsp.unc.edu/pdspweb/content/UNC-CH%20Protocol%20Book.pdf.
(§3) Receptor Mean % Receptor Mean % Receptor Mean %
(§4) Inhibition Inhibition Inhibition
(§5) Supplemental Table S4. Off-Target Actions of EU93-108: Primary GPCR Screen. Cloned human molecular targets were individually expressed and submitted to molecular target-based screening with initial screens performed at a final concentration of 10 µM in quadruplicate. Complete protocols for the assays have been previously published (Besnard J et al. 2012). Where inhibition greater than 50% was measured, secondary screens were performed wherein Ki values were calculated (see Table 4).

For a further experiment, the target named is T2, M3 (Homo sapiens, UniProt P20309).
T2 construct: purchased NIMH Psychoactive Drug Screening Program (PDSP)
T2 sequence (P20309 whole entry): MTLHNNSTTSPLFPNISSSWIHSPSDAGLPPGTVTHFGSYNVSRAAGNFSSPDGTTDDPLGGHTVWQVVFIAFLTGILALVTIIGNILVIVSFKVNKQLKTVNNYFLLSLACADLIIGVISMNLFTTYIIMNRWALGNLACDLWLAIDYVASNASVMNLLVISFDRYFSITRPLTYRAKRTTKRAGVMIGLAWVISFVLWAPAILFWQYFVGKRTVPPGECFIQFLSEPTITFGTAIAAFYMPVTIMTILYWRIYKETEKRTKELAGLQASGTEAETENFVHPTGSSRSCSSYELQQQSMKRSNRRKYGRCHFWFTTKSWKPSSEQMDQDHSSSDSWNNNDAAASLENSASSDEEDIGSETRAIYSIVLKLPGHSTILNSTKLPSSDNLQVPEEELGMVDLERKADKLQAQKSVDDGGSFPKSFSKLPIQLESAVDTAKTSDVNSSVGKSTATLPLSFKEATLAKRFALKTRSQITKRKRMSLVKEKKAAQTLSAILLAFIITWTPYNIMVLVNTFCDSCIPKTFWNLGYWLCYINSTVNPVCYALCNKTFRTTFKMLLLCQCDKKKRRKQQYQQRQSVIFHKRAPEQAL
The experiment is described as follows: Radioligand binding assay (NIMH PDSP). The following applies: primary screen, quadruplicate. As for the experimental part:
as §1, §2, §3, §4, §5

For the next experiment, the target named is T3, 5-HT1A (Homo sapiens, UniProt P08908).
T3 construct: purchased NIMH Psychoactive Drug Screening Program (PDSP)
The experiment is described as follows: Radioligand binding assay (NIMH PDSP). The note with it: primary screen, quadruplicate. As to the method: as §1, §2, §3, §4, §5

The next experiment addresses T4, 5-HT1D (Homo sapiens, UniProt P28221).
T4 construct: purchased NIMH Psychoactive Drug Screening Program (PDSP)
The experiment is described as follows: Radioligand binding assay (NIMH PDSP). The note with it: primary screen, quadruplicate. As for the experimental part: as §1, §2, §3, §4, §5

The next experiment deals with T5, 5-HT5A (Homo sapiens, UniProt P47898).
T5 construct: purchased NIMH Psychoactive Drug Screening Program (PDSP)
The experiment is described as follows: Radioligand binding assay (NIMH PDSP). The following applies: primary screen, quadruplicate. As for the experimental part:
as §1, §2, §3, §4, §5

Another experiment concerns the target T6, Beta1 (Homo sapiens, UniProt P08588).
T6 construct: purchased NIMH Psychoactive Drug Screening Program (PDSP)
The experiment is described as follows: Radioligand binding assay (NIMH PDSP). The note with it: primary screen, quadruplicate. As to the method:
as §1, §2, §3, §4, §5

The next experiment has as its target T7, H2 (Homo sapiens, UniProt P25021).
T7 construct: purchased NIMH Psychoactive Drug Screening Program (PDSP)
The experiment is described as follows: Radioligand binding assay (NIMH PDSP). The note with it: primary screen, quadruplicate. As to the method:
as §1, §2, §3, §4, §5

The target in the next experiment is T8, D4 (Homo sapiens, UniProt P21917).
T8 construct: purchased NIMH Psychoactive Drug Screening Program (PDSP)
T8 sequence (P21917 whole entry): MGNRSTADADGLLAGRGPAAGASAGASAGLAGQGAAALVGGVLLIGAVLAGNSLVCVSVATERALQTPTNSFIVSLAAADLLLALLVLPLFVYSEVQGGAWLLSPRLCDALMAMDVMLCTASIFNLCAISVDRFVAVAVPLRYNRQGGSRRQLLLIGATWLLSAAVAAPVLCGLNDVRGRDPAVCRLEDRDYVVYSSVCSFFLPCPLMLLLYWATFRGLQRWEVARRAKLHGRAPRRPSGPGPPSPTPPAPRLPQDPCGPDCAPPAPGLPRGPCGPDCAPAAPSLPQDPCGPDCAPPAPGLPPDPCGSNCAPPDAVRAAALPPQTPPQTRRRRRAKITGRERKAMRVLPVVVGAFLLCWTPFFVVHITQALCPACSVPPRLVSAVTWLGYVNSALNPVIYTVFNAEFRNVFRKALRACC
The experiment is described as follows: Radioligand binding assay (NIMH PDSP). The following applies: primary screen, quadruplicate. As to the method: as §1, §2, §3, §4, §5

The target of the next experiment is T9, M1 (Homo sapiens, UniProt P11229).
T9 construct: purchased NIMH Psychoactive Drug Screening Program (PDSP)
The experiment is described as follows: Radioligand binding assay (NIMH PDSP). The note with it: primary screen, quadruplicate. As to the method:
as §1, §2, §3, §4, §5

A further experiment addresses T10, 5-HT6 (Homo sapiens, UniProt P50406).
T10 construct: purchased NIMH Psychoactive Drug Screening Program (PDSP)
The experiment is described as follows: Radioligand binding assay (NIMH PDSP). The following applies: primary screen, quadruplicate. As to the method: as §1, §2, §3, §4, §5

The next experiment addresses T11, M2 (Homo sapiens, UniProt P08172).
T11 construct: purchased NIMH Psychoactive Drug Screening Program (PDSP)
The experiment is described as follows: Radioligand binding assay (NIMH PDSP). The following applies: primary screen, quadruplicate. As to the method: as §1, §2, §3, §4, §5

In another experiment the target is T12, 5-HT3 (Homo sapiens, UniProt P46098).
T12 construct: purchased NIMH Psychoactive Drug Screening Program (PDSP)
The experiment is described as follows: Radioligand binding assay (NIMH PDSP). The note with it: primary screen, quadruplicate. As for the experimental part:
as §1, §2, §3, §4, §5

In another experiment the target is T13, KOR (Homo sapiens, UniProt P41145).
T13 construct: purchased NIMH Psychoactive Drug Screening Program (PDSP)
The experiment is described as follows: Radioligand binding assay (NIMH PDSP). The following applies: primary screen, quadruplicate. As for the experimental part:
as §1, §2, §3, §4, §5

Another experiment addresses T14, Beta3 (Homo sapiens, UniProt P13945).
T14 construct: purchased NIMH Psychoactive Drug Screening Program (PDSP)
The experiment is described as follows: Radioligand binding assay (NIMH PDSP). The note with it: primary screen, quadruplicate. As to the method: as §1, §2, §3, §4, §5

The target of another experiment is T15, D5 (Homo sapiens, UniProt P21918).
T15 construct: purchased NIMH Psychoactive Drug Screening Program (PDSP)
T15 sequence (P21918 whole entry): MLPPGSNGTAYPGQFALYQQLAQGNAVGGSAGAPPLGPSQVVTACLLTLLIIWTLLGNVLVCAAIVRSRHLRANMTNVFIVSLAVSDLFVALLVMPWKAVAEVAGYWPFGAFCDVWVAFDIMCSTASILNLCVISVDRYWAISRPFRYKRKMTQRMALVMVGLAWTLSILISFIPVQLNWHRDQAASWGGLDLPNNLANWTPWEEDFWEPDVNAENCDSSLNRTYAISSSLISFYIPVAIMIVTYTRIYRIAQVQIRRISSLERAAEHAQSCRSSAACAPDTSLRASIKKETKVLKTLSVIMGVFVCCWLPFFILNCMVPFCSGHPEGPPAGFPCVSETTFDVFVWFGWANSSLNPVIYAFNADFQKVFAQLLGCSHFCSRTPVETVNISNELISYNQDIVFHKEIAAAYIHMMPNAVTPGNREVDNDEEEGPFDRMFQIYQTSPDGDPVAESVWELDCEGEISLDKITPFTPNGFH
The experiment is described as follows: Radioligand binding assay (NIMH PDSP). The note with it: primary screen, quadruplicate. As for the experimental part: as §1, §2, §3, §4, §5

The target of a further experiment is T16, DAT (Homo sapiens, UniProt Q01959).
T16 construct: purchased NIMH Psychoactive Drug Screening Program (PDSP)
The experiment is described as follows: Radioligand binding assay (NIMH PDSP). The following applies: primary screen, quadruplicate. As for the experimental part: as §1, §2, §3, §4, §5

Another experiment concerns C57BL/6J mice. The experiment is described as follows: Morphine analgesic tolerance development, chronic co-administration (tail immersion test). The experiment is classed as in vivo. The note with it: male (10 mg/kg) and female (20 mg/kg) mice; co-administered with morphine three times a day for three days. As for the experimental part:
Morphine tolerance was induced using repeated administration of increasing doses of morphine from 25 to 40 mg/kg three times a day at 3 to 4 h intervals over three consecutive days (Figure 9). This procedure was adapted from previous publications.[87]−[89]
Figure 9 Morphine analgesic tolerance “stair stepping” dosing regimen. TIT = tail immersion test. On day 1, TIT was conducted to determine baseline latencies for all mice. On days 1 through 3, each mouse was administered morphine s.c. three times per day at doses increasing from 25 to 40 mg/kg at 8:00 am, 12:00 pm, and 4:00 pm. Doses of morphine are shown above the arrows, in mg/kg. […]
Mouse weights were recorded on the day of each experiment. […] Three recordings were taken for each mouse, and each data point is expressed as the mean of the three recordings. […] The identities were not decoded until the data were analyzed.
Prism 9.3.1 software (GraphPad, San Diego, CA) was used for all data analysis and visualization. Data for intrinsic antinociception was analyzed using one-way ANOVA and Dunnett’s post hoc test for multiple comparisons where each group was compared to vehicle. Data for acute morphine potentiation experiments were analyzed using one-way ANOVA and Tukey’s post hoc test for multiple comparisons was also used, where each group mean was compared to the mean of every other group. […]

T1 sequence (P21728 whole entry): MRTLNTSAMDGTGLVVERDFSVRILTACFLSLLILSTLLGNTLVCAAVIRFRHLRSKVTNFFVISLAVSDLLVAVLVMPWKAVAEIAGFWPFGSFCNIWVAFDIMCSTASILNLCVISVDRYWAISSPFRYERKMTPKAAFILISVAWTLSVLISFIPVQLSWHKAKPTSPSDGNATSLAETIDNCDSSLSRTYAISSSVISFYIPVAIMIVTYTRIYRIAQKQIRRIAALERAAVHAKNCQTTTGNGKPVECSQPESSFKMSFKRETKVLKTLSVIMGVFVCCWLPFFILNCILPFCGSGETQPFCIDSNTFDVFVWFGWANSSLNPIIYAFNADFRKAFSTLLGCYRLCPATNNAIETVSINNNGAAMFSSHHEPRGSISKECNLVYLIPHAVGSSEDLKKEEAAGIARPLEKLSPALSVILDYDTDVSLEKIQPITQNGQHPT

With `CS(=O)(=O)Nc1ccc(OC[C@@H](O)CN2CCN(c3ccc(F)c(F)c3)CC2)cc1` [EU93-108, (S)-N-(4-(3-(4-(3,4-Difluorophenyl)piperazin-1-yl)-2-hydroxypropoxy)phenyl)methanesulfonamide], the “residual current at 10 μM” value in experiment [1] (10 μM, % of maximal response, n = 6) amounted to 105%. Also, in experiment [1] (residual response, Table S1, N = 6), the Ymin is 104.8. Also, the “% Control 10 µM EU93-108” value with hP2x is on record as 96.6 ± 4.3%. Further, the inhibition at 10 µM at D1 amounted to 24.7%; on M3, 9.26%; on 5-HT1A, 22.8%; at 5-HT1D, 39.2%; at 5-HT5A, 13%; on Beta1, 29.1%. The inhibition at 10 µM at H2 was 13.7%; on D4 it was 11.4%; on M1, -18.1%; on 5-HT6, 25.3%; at M2 it was -23.1%; at 5-HT3 it was 0.87%. For the same compound, the inhibition at 10 µM is -3.1% on KOR, -10.5% at Beta3, 8.94% at D5 and -7.01% on DAT. Further, the “effect on development of morphine tolerance” value in the experiment with C57BL/6J mice was “failed to inhibit the development of tolerance”.
